Assay results as given in paper PMC2951135 (Journal of medicinal chemistry, 2010).
“Also recorded” adds a separate entry of the source.

Columns and labels:
[1] = cited from earlier work
[2] = tested on: non iron-overloaded, bile duct-cannulated rats; conditions: po 300 μmol/kg; cited from earlier work
[3] = clinical trial abandoned by Genzyme; cited from earlier work
[4] = tested on: iron-overloaded C. apella primates; experiment: Chelator-induced iron clearance in iron-overloaded primates; format: in vivo, Cebus apella monkeys
[5] = tested on: non iron-overloaded, bile duct-cannulated rats; format: in vivo, Sprague-Dawley rats
rats [6] = experiment: Ten-day toxicity trial in rats; format: in vivo, Sprague-Dawley rats
rats [7] = experiment: Tissue iron decorporation in rats after 10 days of dosing; format: in vivo, Sprague-Dawley rats
[8] = Hydrolysis of ester 7 in rat plasma; format: in vitro ADME; conditions: 37 °C, solubilized in DMSO
[9] = Hydrolysis of ester 7 in monkey plasma; format: in vitro ADME, Cebus apella monkeys; conditions: Cebus apella monkey plasma, 37 °C, solubilized in DMSO
[10] = Control incubation of ester 7 with saline in place of plasma; format: in vitro ADME; conditions: 37 °C, 1 or 2 h
[11] = pH 7.4
[12] = po 75 μmol/kg by gavage as monosodium salt
[13] = orally once daily 384 μmol/kg/d × 10 d

In the case of C[C@]1(C(=O)O)CSC(c2ncccc2O)=N1 [Compound 1, (S)-4,5-dihydro-2-(3-hydroxy-2-pyridinyl)-4-methyl-4-thiazolecarboxylic acid], the nephrotoxicity [1] is given as “severely nephrotoxic”.
For C[C@]1(C(=O)[O-])CSC(c2ccc(O)cc2O)=N1.[Na+] [Compound 2, (S)-2-(2,4-dihydroxyphenyl)-4,5-dihydro-4-methyl-4-thiazolecarboxylic acid], the “relative percentage of the iron excreted in the bile (rodents)” value (“relative percentage … in the bile (rodents)” for short) [2] is listed as 100%, the “relative percentage of the iron excreted in the urine (rodents)” value (from here on “relative percentage … in the urine (rodents)”) [2] is listed as 0% and the “toxicity that led to abandonment of the clinical trial” value [3] is listed as “nephrotoxicity; also recorded: renal toxicity”.
In the case of COc1ccc(C2=N[C@@](C)(C(=O)[O-])CS2)c(O)c1.[Na+] [Compound 3, (S)-4,5-dihydro-2-(2-hydroxy-4-methoxyphenyl)-4-methyl-4-thiazolecarboxylic acid], the “relative percentage … in the bile (rodents)” value [2] is listed as 98%, the “relative percentage … in the urine (rodents)” value [2] is listed as 2% and the nephrotoxicity [1] is listed as “very nephrotoxic; also recorded: unacceptably nephrotoxic”.
For COCCOCCOCCOc1ccc(C2=N[C@@](C)(C(=O)O)CS2)c(O)c1 [Compound 4, (S)-4,5-dihydro-2-[2-hydroxy-4-(3,6,9-trioxadecyloxy)phenyl]-4-methyl-4-thiazolecarboxylic acid], the “ICE in primates relative to the longer analogue 5” value ([4]; monkey, in vivo) is listed as 2.5, the “relative percentage … in the bile (rodents)” value [2] is listed as 90% and the “relative percentage … in the urine (rodents)” value [2] is listed as 10%. For the same compound, the nephrotoxicity [1] was “virtually absent of any nephrotoxicity”.
In the case of COCCOCCOCCOCCOc1ccc(C2=N[C@@](C)(C(=O)[O-])CS2)c(O)c1.[Na+] [Compound 5, (S)-4,5-dihydro-2-[2-hydroxy-4-(3,6,9,12-tetraoxatridecyloxy)phenyl]-4-methyl-4-thiazolecarboxylic acid], the “ICE in rodents relative to the parent 2” value ([5]; po 300 μmol/kg) is reported as roughly 11 times.
In the case of COCCOCCOc1ccc(C2=N[C@@](C)(C(=O)O)CS2)c(O)c1 [Compound 6, (S)-4,5-dihydro-2-[2-hydroxy-4-(3,6-dioxaheptyloxy)phenyl]-4-methyl-4-thiazolecarboxylic acid], the “Rodent Iron-Clearing Efficiency” value ([5]; po 300 μmol/kg in capsules, 48 h sample collection period) is reported as greater than 26%, the “Primate Iron-Clearing Efficiency” value [4, 12] is reported as 28.7 ± 12.4% and the “relative percentage of the iron excreted in the urine (primates)” value [4, 12] is reported as 17%. The “Primate Iron-Clearing Efficiency” value ([4]; po 75 μmol/kg in capsules) was greater than 26%, the “relative percentage of the iron excreted in the feces (primates)” value ([4]; po 75 μmol/kg in capsules) was 93% and the “Performance Ratio (mean ICEprimates/ICErodents)” value ([4]; primates given the monosodium salt by gavage, rodents capsules) was 1.1. For the same compound, the histopathology (rats [6]; [13]) was “no obvious histopathologies; also recorded: cannot be reliably differentiated histologically from the tissues from rats in Group 2; also recorded: no histological abnormalities noted between the treated and the control groups”, the “reduction in pancreatic iron vs untreated controls” value (shortened to “reduction in pancreatic iron”) (rats [7]; capsules, 384 μmol/kg/d × 10 d) was “not when it was dosed in capsules” and the “reduction in pancreatic iron” value (rats [7]; gavage as sodium salt, 384 μmol/kg/d × 10 d) was “significant reduction in pancreatic iron”.
In the case of CCOC(=O)[C@@]1(C)CSC(c2ccc(OCCOCCOC)cc2O)=N1 [Compound 7, ethyl (S)-4,5-dihydro-2-[2-hydroxy-4-(3,6-dioxaheptyloxy)phenyl]-4-methyl-4-thiazolecarboxylate], the “time for conversion of all of the ester to the active acid 6” value [8] is reported as 1 to 2 h, the “time for conversion of all of the ester to the active acid 6” value [9] is reported as 1 to 2 h and the “stability of the ester in saline” value [10] is reported as “all of the drug remained in the form of the ester”. The histopathology (rats [6]; [13]) was “Mild to moderate vacuolar degeneration of the proximal tubular epithelial cells; also recorded: unacceptable renal toxicity”, the histopathology (rats [6]; orally once daily in capsules 192 μmol/kg/d × 10 d) was “no drug-related abnormalities” and the “decrease in cardiac iron vs untreated controls” value (rats [7]; capsules, 192 μmol/kg/d × 10 d) was “Neither dose was associated with a reduction in pancreatic or cardiac iron content”. The “reduction in pancreatic iron” value (rats [7]; capsules, 192 μmol/kg/d × 10 d) was “Neither dose was associated with a reduction in pancreatic or cardiac iron content”, the “decrease in cardiac iron vs untreated controls” value (rats [7]; capsules, 384 μmol/kg/d × 10 d) was “Neither dose was associated with a reduction in pancreatic or cardiac iron content” and the “reduction in pancreatic iron” value (rats [7]; capsules, 384 μmol/kg/d × 10 d) was “Neither dose was associated with a reduction in pancreatic or cardiac iron content”. For the same compound, the “times more lipophilic than the parent 2” value [11] was 11,220 times.
